# From PubChem BioAssay (NCI)
# Several values for one entry are separate records, joined by “and”; a condition that tells them apart may be missing. Identical values can stand only once.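 Cultured in 96-well plates, cells were exposed to test compound for 48 hours across five concentrations. GI50 marks 50% less growth. TGI: concentration producing complete growth inhibition.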
# Legend:
# Assay in all cases: NCI-60 cell line screen, 48 h
# [1] = system: UO-31 renal
# [2] = system: HOP-92 NSCLC
# [3] = system: SF-268 CNS
# [4] = system: A549 NSCLC
# [5] = system: M14 melanoma
# [6] = system: HOP-62 NSCLC
# [7] = system: COLO 205 colon
# [8] = system: HT29 colon
# [9] = system: DU-145 prostate
# [10] = system: SR leukemia
SMILES,GI50 [1],TGI [1],GI50 [2],TGI [2],GI50 [3],TGI [3],GI50 [4],TGI [4],GI50 [5],TGI [5],GI50 [6],TGI [6],GI50 [7],TGI [7],GI50 [8],TGI [8],GI50 [9],TGI [9],GI50 [10],TGI [10]
Cc1nn(Cc2ccccc2)cc1C(=O)Nc1sc2c(c1C(N)=O)CCC(=O)C2,1.39 µM,2.88 µM,1.88 µM,4.47 µM,3.12 µM,21.8 µM,4.39 µM,> 100 µM,3.42 µM,14.4 µM,2.45 µM,> 100 µM,1.67 µM,3.76 µM,2.27 µM,6.58 µM,3.73 µM,> 100 µM,1.41 µM,8.81 µM
COc1cccc(N2CCN(c3ncnc4cc[nH]c34)CC2)c1,7.37 µM,> 100 µM,,,14.9 µM,> 100 µM,12.2 µM,> 100 µM,3.76 µM,26.3 µM,17.8 µM,> 100 µM,11.2 µM,45.5 µM,20 µM,> 100 µM,43.2 µM,> 100 µM,1.73 µM,> 100 µM
O=C1C(Cl)=C(Nc2cc(Cl)ccc2O)C(=O)N1Cc1ccccc1,32.7 µM,> 54.6 µM,,,17.5 µM,35 µM,17 µM,36.7 µM,17.1 µM,33.3 µM,34 µM,> 61 µM,18.3 µM,44.3 µM,16.4 µM,59.9 µM,18 µM,33.5 µM,38.6 µM,> 67.7 µM
O=C(CSC(c1ccccc1)c1ccccc1)N/N=C/c1ccccc1Cl,30.9 µM,> 100 µM,7.7 µM,37.2 µM,25.5 µM,78.6 µM,13.6 µM,> 57.3 µM,36.8 µM,> 100 µM,22.7 µM,> 76.8 µM,> 71.8 µM,> 100 µM,> 63.2 µM,> 100 µM,50.6 µM,> 100 µM,9.48 µM,26.7 µM
COc1ccc(/C=C2\COc3ccc(O)c(O)c3C2=O)cc1OC,0.789 µM,2.19 µM,2.18 µM,5.91 µM,1.7 µM,5.64 µM,2.6 µM,> 100 µM,1.43 µM,3.31 µM,5.98 µM,39.3 µM,2.17 µM,6.18 µM,2.12 µM,5.2 µM,2.22 µM,11.4 µM,0.537 µM,10.7 µM
C=C1C(=O)O[C@H]2[C@H]1CC/C(COC(=O)CCCCCCCC(=O)OC/C1=C/CC[C@@]3(C)O[C@H]3[C@H]3OC(=O)C(=C)[C@@H]3CC1)=C\CC[C@@]1(C)O[C@@H]21,1.5 µM,3.79 µM,2.16 µM,5.07 µM,2.3 µM,7.41 µM,11.1 µM,28.8 µM,1.77 µM,4.11 µM,2.19 µM,5.68 µM,1.76 µM,3.78 µM,2.02 µM,4.23 µM,2.9 µM,10.8 µM,0.398 µM,10.6 µM
Cn1c2c(c3ccccc3c1=O)C(=O)c1ccccc1-2,,> 100 µM,,> 100 µM,,> 100 µM,,> 100 µM,,> 100 µM,,> 100 µM,,> 100 µM,,> 100 µM,,> 100 µM,,> 100 µM
COc1cc(C2c3cc4c(cc3[C@@H](Nc3ccc([N+](=O)[O-])cc3)C3COC(=O)[C@H]23)OCO4)cc(OC)c1O (stereo not given in full),0.753 µM,8.76 µM,0.393 µM,,0.914 µM,39.5 µM,0.157 µM and 0.166 µM,3.72 µM,0.543 µM,12.7 µM,,0.947 µM and 2.07 µM,,10.1 µM,,7.81 µM,,37.9 µM,0.045 µM,0.802 µM and 2.18 µM
Cc1ccc(N=Nc2c(O)ccc3n[nH]nc23)cc1,11.7 µM,44.9 µM,15.4 µM,83.8 µM,14.9 µM,77.5 µM,14.2 µM,> 100 µM,27.8 µM,> 100 µM,28 µM,> 100 µM,22.4 µM,73.9 µM,31.8 µM,> 100 µM,16.1 µM,44.9 µM,14 µM,64.8 µM
C[C@H]1COCCN1c1nc(-c2cnc(N)cc2C(F)F)nc(N2CCOCC2)n1,0.047 µM,> 100 µM,0.0197 µM,0.197 µM,0.265 µM,> 100 µM,0.199 µM,> 100 µM,0.129 µM,29.7 µM,0.414 µM,> 100 µM,0.179 µM,19.8 µM,0.176 µM,> 100 µM,0.285 µM,> 100 µM,0.275 µM,29.1 µM
c1cc(C2CCCCC2)ccc1-c1cnc2nonc2n1,1.18 µM,2.44 µM,0.422 µM,2.12 µM,2.13 µM,9.29 µM,2.74 µM,12.2 µM,0.499 µM,2.16 µM,1.21 µM,5.98 µM,1.99 µM,6.39 µM,0.603 µM,3.27 µM,1.35 µM,3.02 µM,0.348 µM,
COc1c(B(O)O)cccc1-c1nc2ccc3[nH]ncc3c2c2c1CCCC2,0.262 µM,14.3 µM,,6.56 µM,1.95 µM,12.5 µM,2.55 µM,> 34.9 µM,4.06 µM,13.2 µM,1.31 µM,19.6 µM,2.2 µM,6.32 µM,3.17 µM,16.4 µM,2.23 µM,25.9 µM,1.13 µM,13.9 µM
O=C(N/N=C/c1cc(Cl)ccc1O)c1ccccc1Nc1ccnc(C(F)(F)F)c1,0.346 µM,7.73 µM,0.833 µM,12.1 µM,0.37 µM,14.7 µM,1.26 µM,23.3 µM,0.407 µM,2.26 µM,0.334 µM,3.65 µM,0.36 µM,13 µM,1.95 µM,18.3 µM,0.362 µM,18.8 µM,0.246 µM,1.76 µM
C=C(C)C1CCC2=CC(CC3(C)OC3C3=CC(C(=O)OC)=C(C1)O3)OC2=O (stereo not given),,> 100 µM,,> 100 µM,,> 100 µM,,> 100 µM,,> 100 µM,,> 100 µM,,,,> 100 µM,,> 100 µM,,> 100 µM
COc1c(-c2ccc3c(c2)OCO3)oc2cc(O)cc(O)c2c1=O,,> 100 µM,,> 100 µM,,> 100 µM,,> 100 µM,,> 100 µM,,55.5 µM,,> 100 µM,,> 100 µM,,> 100 µM,,> 100 µM
C[C@@H](CS[As](C)C)C(=O)N1CCC[C@H]1C(=O)O,0.0923 µM,0.8 µM,0.0514 µM,0.542 µM,0.788 µM,6.45 µM,1.58 µM,> 100 µM,0.105 µM,0.829 µM,0.897 µM,5.11 µM,0.156 µM,,0.715 µM,> 100 µM,0.19 µM,1.68 µM,0.0553 µM,0.272 µM
O=C(NNc1ccccc1)c1ccc(Cl)c(Cl)c1,,> 100 µM,,> 100 µM,,> 100 µM,,> 100 µM,,> 100 µM,,> 100 µM,,0.414 µM,,> 100 µM,,> 100 µM,,> 100 µM
CCC[n+]1cc2cc3c(cc2c2c1-c1cc4c(cc1C2)OCO4)OCO3 (tested in a mixture with another compound),3.14 µM,33.8 µM,0.683 µM,4.07 µM,0.0649 µM,1.95 µM,2.77 µM,> 52.4 µM,2.49 µM,7.81 µM,0.546 µM,6.53 µM,0.49 µM,3.79 µM,1.41 µM,16.6 µM,1.27 µM,7.73 µM,0.287 µM,1.75 µM
CC(C)(O)CCc1cccc(C(=O)c2cnn(-c3ccc(F)cc3)c2N)c1,> 25 µM,> 25 µM,8.7 µM,> 25 µM,> 25 µM,> 25 µM,> 25 µM,> 25 µM,> 25 µM,> 25 µM,> 25 µM,> 25 µM,> 25 µM,> 25 µM,> 25 µM,> 25 µM,> 25 µM,> 25 µM,> 25 µM,> 25 µM
Cc1ccc(NC(=S)C#N)c(C)c1,,> 100 µM,,> 100 µM,,> 100 µM,,> 100 µM,,> 100 µM,,> 100 µM,,> 100 µM,,> 100 µM,,> 100 µM,,> 100 µM
CC(=O)c1ccc2c3c1[C@H]1O[C@H]1c1cccc(c1-3)[C@@H]1O[C@H]21,,3.41 µM,,3.69 µM,,3.86 µM,,9.32 µM,,3.38 µM,,8.83 µM,,3.59 µM,,7.81 µM,,7.19 µM,,> 100 µM
C[C@@]1(C(=O)O)CCC[C@]2(C)C1CC[C@]13C[C@@](O)(CO)[C@](O)(CC[C@]12O)C3 (stereo not given in full),> 100 µM,> 100 µM,,,> 100 µM,> 100 µM,> 100 µM,> 100 µM,> 100 µM,> 100 µM,> 100 µM,> 100 µM,> 100 µM,> 100 µM,> 100 µM,> 100 µM,> 100 µM,> 100 µM,> 100 µM,> 100 µM
O=C(NCCCl)Nc1ccccc1,,> 100 µM,,> 100 µM,,> 100 µM,,> 100 µM,,,,> 100 µM,,> 100 µM,,> 100 µM,,> 100 µM,,> 100 µM
CC(=O)O[C@@H]1C2=C(C)C3(CC3)[C@@](C)(O)C(=O)C2=C[C@@]1(C)CO,,,1.87 µM,5.75 µM,0.357 µM,2.79 µM,1.05 µM,24.2 µM,0.34 µM,1.61 µM,0.474 µM,4.52 µM,1.22 µM,3.73 µM,0.322 µM,> 100 µM,0.342 µM,3.14 µM,0.271 µM,> 100 µM
Cc1ccnc2c(NC(C)CCCN)cc(O)c(O)c12 (stereo not given),61.9 µM,> 100 µM,,,21.2 µM,74.2 µM,20.7 µM,75 µM,29.7 µM,> 100 µM,26.1 µM,> 100 µM,5.15 µM,23.9 µM,8.07 µM,51.8 µM,11.2 µM,24.2 µM,29.3 µM,90.3 µM
CC(C)c1[nH]nc2c(NCc3ccc(-c4ccccn4)cc3)nc(SCCN(C)C)nc12,,,0.0585 µM,0.468 µM,< 0.018 µM,3.68 µM,,13 µM,< 0.0133 µM,0.122 µM,< 0.0177 µM,0.236 µM,< 0.015 µM,0.0297 µM,< 0.0158 µM,1.21 µM,0.138 µM,12.4 µM,< 0.0294 µM,3.21 µM
O=C1CC(Cc2n[nH]c3c2CCCC3)CC(=O)N1,,,,> 100 µM,,> 100 µM,,> 100 µM,,> 100 µM,,> 100 µM,,> 100 µM,,> 100 µM,,> 100 µM,,> 100 µM
O=C(NCc1ccco1)C1CCN(S(=O)(=O)c2ccc(Cl)cc2)CC1,86.6 µM,> 100 µM,> 100 µM,> 100 µM,> 100 µM,> 100 µM,78.3 µM,> 100 µM,,,> 100 µM,> 100 µM,> 100 µM,> 100 µM,> 100 µM,> 100 µM,> 100 µM,> 100 µM,72.8 µM,> 100 µM
C=CCC(N[C@H](CO)c1ccccc1)c1ccccn1 (stereo not given in full),> 100 µM,> 100 µM,,,,,> 100 µM,> 100 µM,> 100 µM,> 100 µM,> 100 µM,> 100 µM,> 100 µM,> 100 µM,> 100 µM,> 100 µM,> 100 µM,> 100 µM,> 100 µM,> 100 µM
